We go through four compounds from patent publication US20050019314A1, “Method and compositions for treating respiratory pathologies” (priority 2001, published 2005).

Marks after values point to notes of the source that are not given here.

Common to all, as to assay type: in vivo, rat
In data set [1] the test system is male Wistar rats. The experiment in a line: Immune cell accumulation in bronchoalveolar lavage fluid induced by intranasal instillation of SLIGRL in rats. Here is the method:
At time t=10 days, the four groups of animals were given a slow intranasal instillation of 200 μl of physiologic serum containing (groups 2 and 4) or not containing (groups 1 and 3) 0.2 mg of SLIGRL.
At time t=3 h after intranasal instillation, animals were anesthetized for bronchoalveolar lavage, then sacrificed.

The subject of data set [2] is male Wistar rats. The experiment in a line: Immune cell accumulation in bronchoalveolar lavage fluid induced by intratracheal instillation of taurocholate (ML-7). Here is the method:
For this experiment, three groups of 8 male Wistar rats (250-300 g) were given either ML-7 by the IP route at a dose of 1 mg/kg/12 h for 36 hours, or the vehicle alone. […] At time t=2 h after the intratracheal instillation, animals were anesthetized for bronchoalveolar lavage, then sacrificed.

Data set [3] deals with male Wistar rats. The experiment in a line: Pulmonary paracellular permeability to 125I-labelled human serum albumin after intratracheal Pseudomonas aeruginosa LPS. Here is the method:
For this experiment, three groups of 6 male Wistar rats (200-225 g) were pretreated either with ML-7 by the IP route (3 mg/kg then 1 mg/kg 3 times a day for 48 h) or the vehicle (ethanol 10%). One hour after the next-to-last administration of ML-7, under urethane anesthesia ([…] IP), a slow intratracheal infusion of 150 μl of an iso-osmolar solution (5% bovine albumin+PBS) containing the tracer and containing (2 groups) or not containing (control group) LPS (1 μg/rat) was given.

The subject of data set [4] is male Wistar rats. The experiment in a line: Immune cell accumulation in bronchoalveolar lavage fluid induced by intratracheal infusion of Pseudomonas aeruginosa LPS. Here is the method: For this experiment, three groups of 7 male Wistar rats (200-225 g) were used. Animals were pretreated with either ML-7 by the IP route (3 mg/kg then 1 mg/kg, 3 times a day for 48 h) or with the vehicle (ethanol 10%). One hour after the next-to-last ML-7 administration, under urethane anesthesia ([…]), a slow intratracheal infusion of 150 μl of an iso-osmolar solution (5% bovine albumin+PBS) containing (2 groups) or not containing (control group) LPS (1 μg/rat) was given. Four hours after the intratracheal infusion, bronchoalveolar lavage was performed.

The test system of data set [5] is male Wistar rats. The experiment in a line: Immune cell accumulation in bronchoalveolar lavage fluid induced by intratracheal infusion of taurocholate (PD-98059). Here is the method: For this experiment, three groups of 8 male Wistar rats (250-300 g) were given either PD-98059 by the IP route (1 mg/kg/12 h, 36 h) or the vehicle alone (DMSO).
The mark [6] stands for this setting: PAR 2 (SLIGRL) 0.2 mg/kg IN alone, no taurine, BAL 3 h after instillation.
Where [7] appears, read: ML-7 1 mg/kg/12 h, 36 h IP + taurocholate intratracheal, BAL 2 h, mean ± SD.
[8] abbreviates: ML-7 (3 mg/kg then 1 mg/kg 3 times a day for 48 h IP) + LPS, BAL 4 h, mean ± SEM.
Setting [9] is: Taurine 10% in drinking water 10 days + 0.9% NaCl IN, BAL 3 h.
The mark [10] stands for this setting: Taurine 10% in drinking water 10 days + PAR 2 (SLIGRL) IN, BAL 3 h.
[11] abbreviates: PD-98059 1 mg/kg/12 h, 36 h IP + taurocholate, BAL 2 h, mean ± SEM.

As for SLIGRL [PAR 2], in the data set with male Wistar rats [1] (setting [6]), the “Eosinophils in BAL” value is listed as 32 ± 2^+ mm^3, the “Lymphocytes in BAL” value is 297 ± 28 mm^3, the “Macrophages in BAL” value was 5559 ± 63^+ mm^3 and the “Neutrophils in BAL” value is 656 ± 41^+ mm^3. In the data set with male Wistar rats [1] (setting [6]), the “Tot. Leucocytes in BAL” value is recorded as 6464 ± 99^+ mm^3. Also, the “eosinophils and neutrophils in bronchoalveolar lavage fluid (in words)” value in the data set on male Wistar rats [1] (intranasal SLIGRL, control animals (no taurine), t = 3 h) is “results in accumulation”.
With `O=S(=O)(c1cccc2c(I)cccc12)N1CCCNCC1` [ML-7, 1-(5-iodonaphtalène-1-sulfonyl)-1H-hexahydro-1,4-diazepine], in the data set on male Wistar rats [2] (setting [7]), the “Leucocytes in BAL” value was found to be 4160 ± 573, the “Lymphocytes in BAL” value is 101 ± 44, the “Macrophages in BAL” value is given as 3585 ± 398 and the “Neutrophils in BAL” value came to 473 ± 216. Also, the “intra-alveolar accumulation of immune cells (in words)” value in the data set on male Wistar rats [2] (ML-7 IP + intratracheal taurocholate) was “significantly reduces”. Moreover, in the data set with male Wistar rats [3] (ML-7 IP + LPS, concluded from unchanged plasma radioactivity), the “effect on vascular endothelial cells (endothelium permeability, tone, pulmonary circulating hemodynamics)” value is listed as “does not present effect”. The “LPS-induced increase in pulmonary permeability” value in the data set on male Wistar rats [3] (ML-7 pretreatment IP (3 mg/kg then 1 mg/kg 3 times a day for 48 h) + LPS) was “inhibited”. Besides, in the data set with male Wistar rats [4] (setting [8]), the “Leucocytes in BAL” value was determined as 17243 ± 2956 cells/mm^3 BAL, the “Lymphocytes in BAL” value is on record as 902 ± 375 cells/mm^3 BAL, the “Macrophages in BAL” value is 10708 ± 1713 cells/mm^3 BAL and the “Neutrophils in BAL” value came out at 6587 ± 1749 cells/mm^3 BAL. Also, the “LPS-induced increase in the number of neutrophils in BAL (in words)” value with male Wistar rats [4] (ML-7 pretreatment IP + LPS) was “reduced”.
`NCCS(=O)(=O)O` [Taurine, taurine]: in the data set with male Wistar rats [1] (setting [9]), the “Eosinophils in BAL” value is recorded as 17 ± 1 mm^3, the “Lymphocytes in BAL” value is 22 ± 8 mm^3, the “Macrophages in BAL” value stood at 1651 ± 72 mm^3 and the “Neutrophils in BAL” value was 34 ± 3 mm^3. Further, the “Tot. Leucocytes in BAL” value in the data set with male Wistar rats [1] (setting [9]) is 1728 ± 111 mm^3. In the data set on male Wistar rats [1] (setting [10]), the “Eosinophils in BAL” value is 17 ± 1* mm^3, the “Lymphocytes in BAL” value was 22 ± 8* mm^3, the “Macrophages in BAL” value is listed as 1967 ± 103* mm^3 and the “Neutrophils in BAL” value was 34 ± 3* mm^3. Further, the “Tot. Leucocytes in BAL” value with male Wistar rats [1] (setting [10]) is on record as 2086 ± 134* mm^3. Moreover, the “SLIGRL-induced accumulation of eosinophils and neutrophils in BAL (in words)” value in the data set on male Wistar rats [1] (animals treated with taurine, t = 3 h) is “not in animals treated with taurine”.
With `COc1cccc(-c2cc(=O)c3ccccc3o2)c1N` [PD-98059, 2-(amino-3-methoxyphenyl)-4H-1-benzopyran-4-one], in the data set with male Wistar rats [5] (setting [11]), the “Eosinophils in BAL” value worked out at 27 ± 27 cells/mm^3 BAL, the “Leucocytes in BAL” value worked out at 21424 ± 3164 cells/mm^3 BAL, the “Lymphocytes in BAL” value is recorded as 774 ± 183 cells/mm^3 BAL and the “Macrophages in BAL” value is 17956 ± 2465 cells/mm^3 BAL. Also, the “Neutrophils in BAL” value with male Wistar rats [5] (setting [11]) is listed as 2652 ± 600 cells/mm^3 BAL. For the same compound, the “intra-alveolar accumulation of immune cells (in words)” value in the data set on male Wistar rats [5] (PD-98059 IP + intratracheal taurocholate) is “reduces”.
